# Laboratory results published in patent publication US10183019B2, “Treatment of cancer with dihydropyrazino-pyrazines” (Signal Pharmaceuticals, LLC, priority 2013, dated 2019).
# Assays:
# [1] = test system: patient-derived GBM cell line 347; assay: Gliomasphere Cell Number Assay; assay type: cell-based; conditions: cell line 347, Recurrent, MGMT status −; 50% cell numbers vs DMSO control, Day 2 to Day 9; read-out: IC50 Cell Survival
# Experimental: (§1) Gliomasphere Cell Number Assay. Primary patient-derived GBM tumor samples were dissociated and plated under culture conditions that produce gliomaspheres (i.e. DMEM/F12 medium supplemented with B27, 20 ng/mL bFGF, 50 ng/mL EGF, penicillin/streptomycin, L-glutamine and 5 ug/mL heparin). Cells were plated at a density of 5000 cells/well and allowed to acclimate overnight at 37° C. The Dihydropyrazino-Pyrazine Compounds were added to the cultures on Day 2 and cells were kept in culture until Day 9. On Day 9, the cells were fixed with PFA/methanol and the next day assessed for cell number, using for example, SYTO-9 fluorescent DNA dye. Plates were read 48 h later with a laser scanning imager.
# [2] = test system: patient-derived GBM cell line 336; assay: Gliomasphere Cell Number Assay; assay type: cell-based; conditions: cell line 336, Recurrent, MGMT status +; 50% cell numbers vs DMSO control, Day 2 to Day 9; read-out: IC50 Cell Survival
# Experimental: as §1
# [3] = test system: patient-derived GBM cell line 308; assay: Gliomasphere Cell Number Assay; assay type: cell-based; conditions: cell line 308, Recurrent, MGMT Unkn/Highly Expressed; 50% cell numbers vs DMSO control, Day 2 to Day 9; read-out: IC50 Cell Survival
# Experimental: as §1
# [4] = test system: patient-derived GBM cell line 157; assay: Gliomasphere Cell Number Assay; assay type: cell-based; conditions: cell line 157, Primary, MGMT status −; 50% cell numbers vs DMSO control, Day 2 to Day 9; read-out: IC50 Cell Survival
# Experimental: as §1
# [5] = test system: patient-derived GBM cell line 378; assay: Gliomasphere Cell Number Assay; assay type: cell-based; conditions: cell line 378, Recurrent, MGMT status −; 50% cell numbers vs DMSO control, Day 2 to Day 9; read-out: IC50 Cell Survival
# Experimental: as §1
# [6] = test system: patient-derived GBM cell line 393; assay: Gliomasphere Cell Number Assay; assay type: cell-based; conditions: cell line 393, Primary, MGMT status +; 50% cell numbers vs DMSO control, Day 2 to Day 9; read-out: IC50 Cell Survival
# Experimental: as §1
# [7] = test system: patient-derived GBM cell line 390; assay: Gliomasphere Cell Number Assay; assay type: cell-based; conditions: cell line 390, Primary, MGMT status −; 50% cell numbers vs DMSO control, Day 2 to Day 9; read-out: IC50 Cell Survival
# Experimental: as §1
# [8] = test system: patient-derived GBM cell line 207; assay: Gliomasphere Cell Number Assay; assay type: cell-based; conditions: cell line 207, Recurrent; 50% cell numbers vs DMSO control, Day 2 to Day 9; read-out: IC50 Cell Survival
# Experimental: as §1
# [9] = test system: patient-derived GBM cell line 350; assay: Gliomasphere Cell Number Assay; assay type: cell-based; conditions: cell line 350, Recurrent; 50% cell numbers vs DMSO control, Day 2 to Day 9; read-out: IC50 Cell Survival
# Experimental: as §1
# [10] = test system: patient-derived GBM cell line 296; assay: Gliomasphere Cell Number Assay; assay type: cell-based; conditions: cell line 296, Recurrent, MGMT status −; 50% cell numbers vs DMSO control, Day 2 to Day 9; read-out: IC50 Cell Survival
# Experimental: as §1
# [11] = test system: patient-derived GBM cell line 245; assay: Gliomasphere Cell Number Assay; assay type: cell-based; conditions: cell line 245, Recurrent; 50% cell numbers vs DMSO control, Day 2 to Day 9; read-out: IC50 Cell Survival
# Experimental: as §1
# [12] = test system: patient-derived GBM cell line 254; assay: Gliomasphere Cell Number Assay; assay type: cell-based; conditions: cell line 254, Recurrent; 50% cell numbers vs DMSO control, Day 2 to Day 9; read-out: IC50 Cell Survival
# Experimental: as §1
# [13] = test system: patient-derived GBM cell line 374; assay: Gliomasphere Cell Number Assay; assay type: cell-based; conditions: cell line 374, Primary, MGMT status −; 50% cell numbers vs DMSO control, Day 2 to Day 9; read-out: IC50 Cell Survival
# Experimental: as §1
# [14] = test system: patient-derived GBM cell line 250; assay: Gliomasphere Cell Number Assay; assay type: cell-based; conditions: cell line 250, Recurrent, MGMT Unkn/Highly Expressed; 50% cell numbers vs DMSO control, Day 2 to Day 9; read-out: IC50 Cell Survival
# Experimental: as §1
# [15] = test system: patient-derived GBM cell line 248; assay: Gliomasphere Cell Number Assay; assay type: cell-based; conditions: cell line 248, Recurrent, MGMT status Slightly elevated; 50% cell numbers vs DMSO control, Day 2 to Day 9; read-out: IC50 Cell Survival
# Experimental: as §1
# [16] = test system: patient-derived GBM cell line 217; assay: Gliomasphere Cell Number Assay; assay type: cell-based; conditions: cell line 217, Primary; 50% cell numbers vs DMSO control, Day 2 to Day 9; read-out: IC50 Cell Survival
# Experimental: as §1
# [17] = test system: patient-derived GBM cell line 301; assay: Gliomasphere Cell Number Assay; assay type: cell-based; conditions: cell line 301, Primary, MGMT status −; 50% cell numbers vs DMSO control, Day 2 to Day 9; read-out: IC50 Cell Survival
# Experimental: as §1
# [18] = test system: patient-derived GBM cell line 229; assay: Gliomasphere Cell Number Assay; assay type: cell-based; conditions: cell line 229, Recurrent; 50% cell numbers vs DMSO control, Day 2 to Day 9; read-out: IC50 Cell Survival
# Experimental: as §1
# [19] = test system: HF2354 PDX (GBM neurosphere line HF2354); assay: Patient derived xenograft (PDX) survival study; assay type: in vivo, nude mouse; conditions: HF2354 PDX in nude mice; 5 mg/kg oral gavage once a day, Monday through Friday; monotherapy
# Experimental: FIG. 2: Kaplan-Meier survival analysis for HF2354 PDX line (end of study). Treatment schedule for survival (Rx) and target hit (TH) are indicated.
# Immunocompromised mice (nude mouse NCRNU-M, TACONIC) were implanted with a GBM neurosphere line derived from fresh surgical specimens. The cell line was characterized as following:
# Patient derived xenograft (PDX) treatments started four weeks prior to when the first animal was expected to become symptomatic. […] Control animals were administered vehicle alone. Target hit cohorts were treated with one dose of each compound and sacrificed 2 and 24 h later (n=3/group). As necessary, fluids and supplemental food were administered to ameliorate weight loss.
structure (smiles),measurement,setting,value
"CCN1C(=O)CNc2ncc(-c3ccc(-c4nc[nH]n4)nc3C)nc21 [Compound 1, 1-ethyl-7-(2-methyl-6-(1H-1,2,4-triazol-3-yl)pyridin-3-yl)-3,4-dihydropyrazino[2,3-b]pyrazin-2(1H)-one]",IC50,[1],163 nM
same,IC50,[2],231 nM
same,IC50,[3],68.2 nM
same,IC50,[4],46.8 nM
same,IC50,[5],81.3 nM
same,IC50,[6],178 nM
same,IC50,[7],65.9 nM
same,IC50,[8],100 nM
same,IC50,[9],99.6 nM
same,IC50,[10],74.5 nM
same,IC50,[11],68.7 nM
same,IC50,[12],99.6 nM
same,IC50,[13],165 nM
same,IC50,[14],70.6 nM
same,IC50,[15],441 nM
same,IC50,[16],71.9 nM
same,IC50,[17],313 nM
same,IC50,[18],115 nM
same,survival (Kaplan-Meier),[19],significantly increased survival
